Experimental data taken from patent US10604509B2, “Nrf2 regulators” (GlaxoSmithKline Intellectual Property Development Limited, priority 2015, dated 2020).
Counter-ions that a name gives are not always drawn.

system: NQO1 specific enzyme activity in BEAS-2B cells; assay: BEAS-2B NQO1 MTT assay; format: cell-based; settings: BEAS-2B cells, 48 hours with compound, MTT readout; read-out: EC50 of NQO1 specific activity induction
Procedure, shortened: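 BEAS-2B cells treated with compound 48 h at 37° C, 5% CO2, then lysed; NQO1 activity in lysate measured kinetically by MTT cocktail at Absorbance 570 nm over 30 min. EC50 for induction from Delta OD/min versus log concentration, 3-parameter fit; Cell Titer Glo run on lysate aliquot.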

Compound | EC50
CCCn1cc(CCC(c2ccc(C)c(Cn3ccnc3CN3CCC(CC)CC3)c2)C(C)(C)C(=O)O)nn1 (single isomer, unassigned) [Example 247, 3-(3-((2-((4-Ethylpiperidin-1-yl)methyl)-1H-imidazol-1-yl)methyl)-4-methylphenyl)-2,2-dimethyl-5-(1-propyl-1H-1,2,3-triazol-4-yl)pentanoic Acid] | 1 to 10 nM

same assay, conditions: Homo sapiens, BEAS-2B, 48 h, BEAS-2B cells, 48 hours with compound, MTT readout; read-out: EC50 of NQO1 specific activity induction

Compound | EC50
Cc1ccc(C(c2ccc3c(nnn3C)c2C)C(C)(C)C(=O)O)cc1Cn1ccnc1CN1CCCC1 (stereo not shown) [Example 124, 3-(1,4-Dimethyl-1H-benzo[d][1,2,3]triazol-5-yl)-2,2-dimethyl-3-(4-methyl-3-((2-(pyrrolidin-1-ylmethyl)-1H-imidazol-1-yl)methyl)phenyl)propanoate, Sodium salt] | 10 to 100 nM
COc1ccc2c(c1)OC(C)(C)CN(Cc1cc([C@H](CC(=O)O)c3ccc4c(nnn4C)c3C)ccc1C)C2 [Example 168, (S)-3-(1,4-Dimethyl-1H-benzo[d][1,2,3]triazol-5-yl)-3-(3-((8-methoxy-2,2-dimethyl-2,3-dihydrobenzo[f][1,4]oxazepin-4(5H)-yl)methyl)-4-methylphenyl)propanoic acid] | 10 to 100 nM
Cc1ccc(C(c2ccc3c(nnn3C)c2C)C(C)(C)C(=O)O)cc1CN1Cc2cccnc2OC(C)(C)C1 (stereo not shown) [Example 23, 3-(1,4-Dimethyl-1H-benzo[d][1,2,3]triazol-5-yl)-3-(3-((2,2-dimethyl-2,3-dihydropyrido[3,2-f][1,4]oxazepin-4(5H)-yl)methyl)-4-methylphenyl)-2,2-dimethylpropanoic Acid, Trifluoroacetic Acid] | 10 to 100 nM
Cc1ccc(C(CC(=O)O)c2ccc3c(nnn3C)c2C)cc1CN1CCOc2ccc(C#N)cc2C1 (stereo not shown) [Example 14, Ammonium 3-(3-((7-cyano-2,3-dihydrobenzo[f][1,4]oxazepin-4(5H)-yl)methyl)-4-methylphenyl)-3-(1,4-dimethyl-1H-benzo[d][1,2,3]triazol-5-yl)propanoate] | 1000 to 10000 nM
CC[C@@H]1CN(Cc2cc([C@H](c3ccc4c(nnn4C)c3C)C(C)C(=O)O)ccc2C)Cc2cc(F)ccc2O1 (stereo partly drawn) [Example 42, (3R)-3-(1,4-Dimethyl-1H-benzo[d][1,2,3]triazol-5-yl)-3-(3-(((R)-2-ethyl-7-fluoro-2,3-dihydrobenzo[f][1,4]oxazepin-4(5H)-yl)methyl)-4-methylphenyl)-2-methylpropanoic Acid, Trifluoroacetic Acid Salt] | 100 to 1000 nM
CC[C@@H]1CN(Cc2cc(C(CC(=O)O)c3ccc4c(nnn4C)c3C)ccc2C)Cc2cccnc2O1 (stereo partly drawn) [Example 116, 3-(1,4-Dimethyl-1H-benzo[d][1,2,3]triazol-5-yl)-3-(3-(((R)-2-ethyl-2,3-dihydropyrido[3,2-f][1,4]oxazepin-4(5H)-yl)methyl)-4-methylphenyl)propanoic Acid, Formic Acid Salt] | 1000 to 10000 nM
Cc1ccc(C(CC(=O)O)c2ccc3c(nnn3C)c2C)cc1Cn1ccnc1C(C)C1CCCCC1 (stereo not shown) [Example 133, Ammonium 3-(3-((2-(1-cyclohexylethyl)-1H-imidazol-1-yl)methyl)-4-methylphenyl)-3-(1,4-dimethyl-1H-benzo[d][1,2,3]triazol-5-yl)propanoate] | 100 to 1000 nM
CCn1nnc2c(F)c([C@H](c3ccc(C)c(CN4Cc5ncccc5OC(C)(C)C4)c3)[C@@H](C)C(=O)O)ccc21 [Example 190, (2R,3S)-3-(3-((2,2-Dimethyl-2,3-dihydropyrido[2,3-f][1,4]oxazepin-4(5H)-yl)methyl)-4-methylphenyl)-3-(1-ethyl-4-fluoro-1H-benzo[d][1,2,3]triazol-5-yl)-2-methylpropanoic Acid] | 1 to 10 nM
CC[C@@H]1CN(Cc2cc([C@H](CC(=O)O)c3ccc4c(nnn4CC)c3F)ccc2C)Cc2cnccc2O1 [Example 53, (S)-3-(3-(((R)-2-Ethyl-2,3-dihydropyrido[3,4-f][1,4]oxazepin-4(5H)-yl)methyl)-4-methylphenyl)-3-(1-ethyl-4-fluoro-1H-benzo[d][1,2,3]triazol-5-yl)propanoic acid] | 100 to 1000 nM
CCC1CCN(Cc2nccn2Cc2cc(C(CCc3cn(CC)nn3)C(C)(C)C(=O)O)ccc2Cl)CC1 (stereo not shown) [Example 230, 3-(4-Chloro-3-((2-((4-ethylpiperidin-1-yl)methyl)-1H-imidazol-1-yl)methyl)phenyl)-5-(1-ethyl-1H-1,2,3-triazol-4-yl)-2,2-dimethylpentanoic Acid] | 1 to 10 nM
Cc1ccc(C(CC(=O)NS(C)(=O)=O)c2ccc3c(nnn3C)c2C)cc1CN1Cc2ccccc2OC(C)(C)C1 (stereo not shown) [Example 187, 3-(1,4-Dimethyl-1H-benzo[d][1,2,3]triazol-5-yl)-3-(3-((2,2-dimethyl-2,3-dihydrobenzo[f][1,4]oxazepin-4(5H)-yl)methyl)-4-methylphenyl)-N-(methylsulfonyl)propanamide] | 100 to 1000 nM
Cc1ccc([C@H](CC(=O)O)c2ccc3c(nnn3C)c2C)cc1CN1Cc2cc(F)ccc2OC(C)(C)C1 [Example 62, (S)-3-(1,4-Dimethyl-1H-benzo[d][1,2,3]triazol-5-yl)-3-(3-((7-fluoro-2,2-dimethyl-2,3-dihydrobenzo[f][1,4]oxazepin-4(5H)-yl)methyl)-4-methylphenyl)propanoic acid, 1.5formic acid salt] | 10 to 100 nM
CC[C@@H]1CN(Cc2cc(C(c3ccc4c(nnn4C)c3C)C(C)(C)C(=O)O)ccc2C)Cc2cccc(F)c2O1 (stereo partly drawn) [Example 34, 3-(1,4-Dimethyl-1H-benzo[d][1,2,3]triazol-5-yl)-3-(3-(((R)-2-ethyl-9-fluoro-2,3-dihydrobenzo[f][1,4]oxaz-epin-4(5H)-yl)methyl)-4-methylphenyl)-2,2-dimethylpropanoic acid, formic acid salt] | 100 to 1000 nM
CC[C@@H]1CN(Cc2cc(C(CC(=O)O)c3ccc4c(nnn4C)c3C)ccc2C)Cc2ccncc2O1 (stereo partly drawn) [Example 90, 3-(1,4-Dimethyl-1H-benzo[d][1,2,3]triazol-5-yl)-3-(3-(((R)-2-ethyl-2,3-dihydropyrido[4,3-f][1,4]oxazepin-4(5H)-yl)methyl)-4-methylphenyl)propanoic acid] | 10 to 100 nM
CC[C@@H]1CN(Cc2cc([C@H](CC(=O)O)c3ccc4c(nnn4CC)c3C)ccc2C)Cc2ccccc2O1 [Example 68, (S)-3-(3-(((R)-2-Ethyl-2,3-dihydrobenzo[f][1,4]oxazepin-4(5H)-yl)methyl)-4-methylphenyl)-3-(1-ethyl-4-methyl-1H-benzo[d][1,2,3]triazol-5-yl)propanoic Acid, Formic Acid Salt] | 10 to 100 nM
Cc1ccc(C(CC(=O)O)c2ccc3c(nnn3C)c2C)cc1CN1CCCC(n2cccn2)C1 (stereo not shown) [Example 9, Ammonium 3-(3-((3-(1H-pyrazol-1-yl)piperidin-1-yl)methyl)-4-methylphenyl)-3-(1,4-dimethyl-1H-benzo[d][1,2,3]triazol-5-yl)propanoate] | 1000 to 10000 nM
Cc1ccc(C(CC(=O)O)c2ccc3c(nnn3C)c2C)cc1CN(C)Cc1cccc(Br)c1 (stereo not shown) [Example 17, Ammonium 3-(3-(((3-bromobenzyl)(methyl)amino)methyl)-4-methylphenyl)-3-(1,4-dimethyl-1H-benzo[d][1,2,3]triazol-5-yl)propanoate] | 1000 to 10000 nM
Cc1ccc(C(CC(=O)O)c2ccc3c(nnn3C)c2C)cc1Cn1ccnc1CC1CCCC1 (stereo not shown) [Example 148, 3-(3-((2-(Cyclopentylmethyl)-1H-imidazol-1-yl)methyl)-4-methylphenyl)-3-(1,4-dimethyl-1H-benzo[d][1,2,3]triazol-5-yl)propanoic acid] | 100 to 1000 nM
Cc1ccc(C(CC(=O)O)c2ccc3c(nnn3C)c2C)cc1Cn1ccnc1CN1CCC(F)(F)CC1 (stereo not shown) [Example 149, 3-(3-((2-((4,4-Difluoropiperidin-1-yl)methyl)-1H-imidazol-1-yl)methyl)-4-methylphenyl)-3-(1,4-dimethyl-1H-benzo[d][1,2,3]triazol-5-yl)propanoic acid] | 100 to 1000 nM
Cc1c(C(CC(=O)O)c2ccc(Cl)c(CN3CCCC(n4cccn4)C3)c2)ccc2c1nnn2C (stereo not shown) [Example 160, 3-(3-((3-(1H-Pyrazol-1-yl)piperidin-1-yl)methyl)-4-chlorophenyl)-3-(1,4-dimethyl-1H-benzo[d][1,2,3]triazol-5-yl)propanoic Acid, Formic Acid Salt] | 1000 to 10000 nM
Cc1ccc(C(c2ccc3c(nnn3C)c2C)C(C)(C)C(=O)O)cc1Cn1ccnc1CN1C2CCC1CC2 (stereo not shown) [Example 155, 3-(3-((2-(7-Azabicyclo[2.2.1]heptan-7-ylmethyl)-1H-imidazol-1-yl)methyl)-4-methylphenyl)-3-(1,4-dimethyl-1H-benzo[d][1,2,3]triazol-5-yl)-2,2-dimethylpropanoic Acid, Trifluoroacetic Acid Salt] | 10 to 100 nM
CC[C@@H]1CN(Cc2cc(C(CC(=O)O)c3ccc4c(nnn4C)c3C)ccc2C)Cc2ccccc2O1 (stereo partly drawn) [Example 73, 3-(1,4-Diemthyl-1H-benzo[d][1,2,3]triazol-5-yl)-3-(3-(((R)-2-ethyl-2,3-dihydrobenzo[f][1,4]oxazepin-4(5H)-yl)methyl)-4-methylphenyl)propanonic acid, formic acid salt] | 100 to 1000 nM
Cc1ccc(C(c2ccc3c(nnn3C)c2C)C(C)(C)C(=O)O)cc1CN1Cc2ccccc2OC(C)(C)C1 (stereo not shown) [Example 8, 3-(1,4-Dimethyl-1H-benzo[d][1,2,3]triazol-5-yl)-3-(3-((2,2-dimethyl-2,3-dihydrobenzo[f][1,4]oxazepin-4(5H)-yl)methyl)-4-methylphenyl)-2,2-dimethylpropanoic Acid, Formic Acid Salt] | 1 to 10 nM

same assay, conditions: Homo sapiens; BEAS-2B cells, 48 hours with compound, MTT readout; read-out: EC50 of NQO1 specific activity induction

Compound | EC50
CC[C@@H]1CN(Cc2cc([C@@H](c3ccc4c(nnn4C)c3C)C(C)(C)C(=O)OCOP(=O)(O)Oc3ccccc3)ccc2C)Cc2cnccc2O1 [Example 254] | 1 to 10 nM
